ChEMBL document CHEMBL1140860, “Synthesis and evaluation of dihydroartemisinin and dihydroartemisitene acetal dimers showing anticancer and antiprotozoal activity” (Bioorg Med Chem, 2009)

Legend:
CCRF-CEM = assay: Growth inhibition of human CCRF-CEM cells after 48 hrs by sulforhodamine B assay; format: functional
HL-60 = assay: Growth inhibition of human HL-60(TB) cells after 48 hrs by sulforhodamine B assay; format: functional; conditions: HL-60, 48 h
K562 = assay: Growth inhibition of human K562 cells after 48 hrs by sulforhodamine B assay; format: functional; conditions: K562, 48 h
MOLT-4 = assay: Growth inhibition of human MOLT4 cells after 48 hrs by sulforhodamine B assay; format: functional; conditions: MOLT-4, 48 h
[1] = Growth inhibition of human […] cells after 48 hrs by sulforhodamine B assay; format: functional
SR = assay: Growth inhibition of human SR cells after 48 hrs by sulforhodamine B assay; format: functional
A549 = assay: Growth inhibition of human A549 cells after 48 hrs by sulforhodamine B assay; format: functional; conditions: A549, 48 h
HCC 2998 = assay: Growth inhibition of human HCC2998 cells after 48 hrs by sulforhodamine B assay; format: functional; conditions: HCC 2998, 48 h
HCT-116 = assay: Growth inhibition of human HCT116 cells after 48 hrs by sulforhodamine B assay; format: functional; conditions: HCT-116, 48 h
HCT-15 = assay: Growth inhibition of human HCT15 cells after 48 hrs by sulforhodamine B assay; format: functional; conditions: HCT-15, 48 h
HT-29 = assay: Growth inhibition of human HT-29 cells after 48 hrs by sulforhodamine B assay; format: functional; conditions: HT-29, 48 h
KM12 = assay: Growth inhibition of human KM12 cells after 48 hrs by sulforhodamine B assay; format: functional; conditions: KM12, 48 h
SW-620 = assay: Growth inhibition of human SW620 cells after 48 hrs by sulforhodamine B assay; format: functional; conditions: SW-620, 48 h
SF-268 = assay: Growth inhibition of human SF268 cells after 48 hrs by sulforhodamine B assay; format: functional; conditions: SF-268, 48 h
SF-295 = assay: Growth inhibition of human SF295 cells after 48 hrs by sulforhodamine B assay; format: functional; conditions: SF-295, 48 h
SF-539 = assay: Growth inhibition of human SF539 cells after 48 hrs by sulforhodamine B assay; format: functional; conditions: SF-539, 48 h
SNB-19 = assay: Growth inhibition of human SNB19 cells after 48 hrs by sulforhodamine B assay; format: functional; conditions: SNB-19, 48 h
U-251 = assay: Growth inhibition of human U251 cells after 48 hrs by sulforhodamine B assay; format: functional; conditions: U-251, 48 h
M14 = assay: Growth inhibition of human M14 cells after 48 hrs by sulforhodamine B assay; format: functional; conditions: M14, 48 h
Malme-3M = assay: Growth inhibition of human MALME-3M cells after 48 hrs by sulforhodamine B assay; format: functional
SK-MEL-2 = assay: Growth inhibition of human SK-MEL-2 cells after 48 hrs by sulforhodamine B assay; format: functional; conditions: SK-MEL-2, 48 h
SK-MEL-28 = assay: Growth inhibition of human SK-MEL-28 cells after 48 hrs by sulforhodamine B assay; format: functional; conditions: SK-MEL-28, 48 h
SK-MEL-5 = assay: Growth inhibition of human SK-MEL-5 cells after 48 hrs by sulforhodamine B assay; format: functional; conditions: SK-MEL-5, 48 h
UACC-257 = assay: Growth inhibition of human UACC257 cells after 48 hrs by sulforhodamine B assay; format: functional; conditions: UACC-257, 48 h
UACC-62 = assay: Growth inhibition of human UACC62 cells after 48 hrs by sulforhodamine B assay; format: functional; conditions: UACC-62, 48 h
IGROV-1 = assay: Growth inhibition of human IGROV1 cells after 48 hrs by sulforhodamine B assay; format: functional; conditions: IGROV-1, 48 h
OVCAR-3 = assay: Growth inhibition of human OVCAR-3 cells after 48 hrs by sulforhodamine B assay; format: functional; conditions: OVCAR-3, 48 h
OVCAR-4 = assay: Growth inhibition of human OVCAR4 cells after 48 hrs by sulforhodamine B assay; format: functional; conditions: OVCAR-4, 48 h
OVCAR-5 = assay: Growth inhibition of human OVCAR5 cells after 48 hrs by sulforhodamine B assay; format: functional; conditions: OVCAR-5, 48 h
OVCAR-8 = assay: Growth inhibition of human OVCAR8 cells after 48 hrs by sulforhodamine B assay; format: functional; conditions: OVCAR-8, 48 h
SK-OV-3 = assay: Growth inhibition of human SKOV3 cells after 48 hrs by sulforhodamine B assay; format: functional; conditions: SK-OV-3, 48 h
786-0 = assay: Growth inhibition of human 786-0 cells after 48 hrs by sulforhodamine B assay; format: functional; conditions: 786-0, 48 h
A498 = assay: Growth inhibition of human A498 cells after 48 hrs by sulforhodamine B assay; format: functional; conditions: A498, 48 h
ACHN = assay: Growth inhibition of human ACHN cells after 48 hrs by sulforhodamine B assay; format: functional
CAKI-1 = assay: Growth inhibition of human Caki1 cells after 48 hrs by sulforhodamine B assay; format: functional; conditions: CAKI-1, 48 h
RXF 393 = assay: Growth inhibition of human RXF393 cells after 48 hrs by sulforhodamine B assay; format: functional; conditions: RXF 393, 48 h
SN12C = assay: Growth inhibition of human SN12C cells after 48 hrs by sulforhodamine B assay; format: functional
TK-10 = assay: Growth inhibition of human TK10 cells after 48 hrs by sulforhodamine B assay; format: functional; conditions: TK-10, 48 h
UO-31 = assay: Growth inhibition of human UO31 cells after 48 hrs by sulforhodamine B assay; format: functional; conditions: UO-31, 48 h
PC-3 = assay: Growth inhibition of human PC3 cells after 48 hrs by sulforhodamine B assay; format: functional; conditions: PC-3, 48 h
DU-145 = assay: Growth inhibition of human DU145 cells after 48 hrs by sulforhodamine B assay; format: functional; conditions: DU-145, 48 h
MCF7 = assay: Growth inhibition of human MCF7 cells after 48 hrs by sulforhodamine B assay; format: functional; conditions: MCF7, 48 h
NCI/ADR-RES = assay: Growth inhibition of human NCI/ADR-RES cells after 48 hrs by sulforhodamine B assay; format: functional
MDA-MB-231 = assay: Growth inhibition of human MDA-MB-231 cells after 48 hrs by sulforhodamine B assay; format: functional; conditions: MDA-MB-231, 48 h
[2] = Growth inhibition of human Hs 578T cells after 48 hrs by sulforhodamine B assay; format: functional
MDA-MB-435 = assay: Growth inhibition of human MDA-MB-435 cells after 48 hrs by sulforhodamine B assay; format: functional; conditions: MDA-MB-435, 48 h
MDA-N = assay: Growth inhibition of human MDA-N cells after 48 hrs by sulforhodamine B assay; format: functional
BT-549 = assay: Growth inhibition of human BT549 cells after 48 hrs by sulforhodamine B assay; format: functional; conditions: BT-549, 48 h
T47D = assay: Growth inhibition of human T47D cells after 48 hrs by sulforhodamine B assay; format: functional
Plasmodium falciparum [3] = assay: Antimalarial activity after 72 hrs against chloroquine-sensitive Plasmodium falciparum D6 infected in erythrocytes by LDH assay; format: functional, organism-based; conditions: D6, 72 h
[4] = Selectivity index, ratio of TC50 for african green monkey (Cercopithecus aethiops) Vero cells to IC50 for chloroquine-sensitive Plasmodium falciparum D6; format: toxicity, cell-based
Plasmodium falciparum [5] = assay: Antimalarial activity after 72 hrs against chloroquine-resistant Plasmodium falciparum W2 infected erythrocytes by LDH assay; format: functional, organism-based; conditions: W2, 72 h
[6] = Selectivity index, ratio of TC50 for african green monkey (Cercopithecus aethiops) Vero cells to IC50 for chloroquine-resistant Plasmodium falciparum W2; format: toxicity, cell-based
[7] = Cytotoxicity against african green monkey Vero cells after 48 hrs by neutral red assay; format: cell-based; conditions: chlorocebus sabaeus, read-out: TC50
EKVX = assay: Growth inhibition of human EKVX cells after 48 hrs by sulforhodamine B assay; format: functional
HOP-62 = assay: Growth inhibition of human HOP62 cells after 48 hrs by sulforhodamine B assay; format: functional; conditions: HOP-62, 48 h
HOP-92 = assay: Growth inhibition of human HOP92 cells after 48 hrs by sulforhodamine B assay; format: functional; conditions: HOP-92, 48 h
NCI-H23 = assay: Growth inhibition of human NCI-H23 cells after 48 hrs by sulforhodamine B assay; format: functional; conditions: NCI-H23, 48 h
NCI-H322M = assay: Growth inhibition of human NCI-H322M cells after 48 hrs by sulforhodamine B assay; format: functional
NCI-H460 = assay: Growth inhibition of human NCI-H460 cells after 48 hrs by sulforhodamine B assay; format: functional; conditions: NCI-H460, 48 h
NCI-H522 = assay: Growth inhibition of human NCI-H522 cells after 48 hrs by sulforhodamine B assay; format: functional; conditions: NCI-H522, 48 h
COLO 205 = assay: Growth inhibition of human COLO205 cells after 48 hrs by sulforhodamine B assay; format: functional; conditions: COLO 205, 48 h

With `C=C1[C@@H](OCCCO[C@H]2O[C@@H]3O[C@@]4(C)CC[C@H]5[C@H](C)CC[C@@H](C2=C)[C@@]35OO4)O[C@@H]2O[C@@]3(C)CC[C@H]4[C@H](C)CC[C@@H]1[C@@]24OO3` the GI50 (CCRF-CEM) was 97 nM, the GI50 (HL-60) was 98 nM and the GI50 (K562) was 50 nM. It also gave a GI50 (MOLT-4) of 121 nM, a GI50 [1] of 13 nM and a GI50 (SR) of 28 nM. The GI50 (A549) was 5330 nM, the GI50 (HCC 2998) was 5980 nM and the GI50 (HCT-116) was 27 nM. It also gave a GI50 (HCT-15) of 12 nM, a GI50 (HT-29) of 43 nM and a GI50 (KM12) of 94 nM. The GI50 (SW-620) was 62 nM, the GI50 (SF-268) was 6290 nM and the GI50 (SF-295) was 7650 nM. For the same compound, the GI50 (SF-539) was 5340 nM, the GI50 (SNB-19) was 11100 nM and the GI50 (U-251) was 288 nM. It also gave a GI50 (M14) of 205 nM, a GI50 (Malme-3M) of 7280 nM and a GI50 (SK-MEL-2) of 3140 nM. It also gave a GI50 (SK-MEL-28) of 6070 nM, a GI50 (SK-MEL-5) of 496 nM and a GI50 (UACC-257) of 479 nM. The GI50 (UACC-62) was 7200 nM, the GI50 (IGROV-1) was 622 nM and the GI50 (OVCAR-3) was 107 nM. It also gave a GI50 (OVCAR-4) of 73 nM, a GI50 (OVCAR-5) of 5040 nM and a GI50 (OVCAR-8) of 372 nM. The GI50 (SK-OV-3) was 10900 nM, the GI50 (786-0) was 346 nM and the GI50 (A498) was > 50000 nM. For the same compound, the GI50 (ACHN) was 6380 nM, the GI50 (CAKI-1) was 1770 nM and the GI50 (RXF 393) was 6460 nM. For the same compound, the GI50 (SN12C) was 7300 nM, the GI50 (TK-10) was 218 nM and the GI50 (UO-31) was 181 nM. It also gave a GI50 (PC-3) of 63 nM, a GI50 (DU-145) of 7590 nM and a GI50 (MCF7) of 150 nM. For the same compound, the GI50 (NCI/ADR-RES) was 533 nM, the GI50 (MDA-MB-231) was 13100 nM and the GI50 [2] was 74 nM. For the same compound, the GI50 (MDA-MB-435) was 443 nM, the GI50 (MDA-N) was 518 nM and the GI50 (BT-549) was 7520 nM. The GI50 (T47D) was 14 nM, the IC50 (Plasmodium falciparum [3]) was 18600 nM and the selectivity ratio [4] was > 43. For the same compound, the IC50 (Plasmodium falciparum [5]) was 5100 nM, the selectivity ratio [6] was > 159 and the CC50 at 48 h [7] was > 806000 nM. It also gave a GI50 (EKVX) of 476 nM, a GI50 (HOP-62) of 6880 nM and a GI50 (HOP-92) of 745 nM. The GI50 (NCI-H23) was 1070 nM, the GI50 (NCI-H322M) was 11200 nM and the GI50 (NCI-H460) was 5440 nM. The GI50 (NCI-H522) was 401 nM and the GI50 (COLO 205) was 122 nM.
